Test results from PMC10648852, “Molecular drivers of resistance to sulbactam-durlobactam in contemporary clinical isolates of Acinetobacter baumannii” (Antimicrobial Agents and Chemotherapy, 2023).
Where “and” joins values, the source holds several entries; their conditions need not be identical. Equal values may be shown once. Read-outs that look alike come from different tables or passages of the source.

What was measured:
A. baumannii PBP3 H370Y = test: Acylation rate constant (kinact/Ki), fluorescence anisotropy competition with BOCILLIN; details: for k inact/K i: average ± SD
A. baumannii PBP3 S390T [1] = tested on: A. baumannii PBP3 S390T; set-up: method as in McLeod et al. (2018); details: average ± SD, ref McLeod et al. (2018); cited from earlier work
A. baumannii PBP3 S395F [2] = tested on: A. baumannii PBP3 S395F; set-up: method as in McLeod et al. (2018); details: average ± SD, ref McLeod et al. (2018); cited from earlier work
[3] = tested on: isogenic A. baylyi ADP1 panel encoding wildtype or mutant PBP3; test: Broth microdilution MIC, isogenic A. baylyi panel (PBP3 variants with or without overexpressed β-lactamases); assay type: cell-based; details: for increase in MIC values in the presence of β-lactamase: wildtype PBP3 strain
Protocol: To understand the effect of PBP3 variants on whole cell activity in the absence of other resistance determinants, the MIC values of sulbactam, SUL-DUR and comparator β-lactams were measured against an isogenic A. baylyi panel engineered to contain individual strains in which the endogenous PBP3 was replaced with the variant of interest.
Each of the A. baylyi panel members were then transformed with plasmids that constitutively expressed five distinct, representative β-lactamases commonly found in Acinetobacter clinical isolates (TEM-1, ADC-30, OXA-23, OXA-24 or OXA-66) and evaluated for changes in antibiotic susceptibility. […] . […] .
The isogenic A. baylyi panel used for chromosomal expression of various PBP3 mutants with or without constitutive expression of various β-lactamases were constructed as part of this study. The A. baylyi ADP1 PBP3 ORF was cloned into pUC19 with a gentamicin cassette inserted downstream of the PBP3 ORF for selection purposes. Additionally, 500 bp of flanking homology to the ADP1 genome were inserted upstream of the PBP3 ORF and downstream of the gentamicin cassette. […] Linear DNA consisting of the 500 bp upstream-PBP3-Gent-500 bp downstream fragment was cloned out of the pUC19 plasmid by PCR and used for transformation of the ADP1 strain. The strain was grown at 30°C overnight in LB medium shaking at 250 rpm. Seventy microliters of the overnight ADP1 culture were combined with 1 mL of fresh LB and 200 ng of linear DNA fragment and incubated for 5 h at 30°C and shaking at 200 rpm. Various dilutions of each culture were plated on LB agar supplemented with 10 µg/mL of gentamicin to select for transformants with successful chromosomal integrations. Integrants were verified by Sanger sequencing using purified genomic DNA.
For the constitutive expression of various β-lactamases, ORFs of bla TEM-1, bla ADC-30, bla OXA-23, bla OXA-24, and bla OXA-66 were cloned by PCR from various clinical strains that encode these genes and inserted into the pWH1266 plasmid modified to encode a kanamycin cassette for selection. These plasmids along with an empty vector were used to transform each of the A. baylyi ADP1 strains engineered above that encode wild-type PBP3 or variants. Transformations were carried out as done above with selection on LB agar supplemented with 20 µg/mL of kanamycin.
(§1) Antimicrobial susceptibility testing was performed using broth microdilution following standardized methods established by the Clinical Laboratory Standards Institute (CLSI) ([35], [36]). Quality control testing was performed as specified by CLSI using A. baumannii NCTC 13304 ([35]). MIC values were interpreted using CLSI breakpoints for all antimicrobial agents except those for which CLSI breakpoints are not available ([35]). SUL-DUR was tested as twofold dilutions of sulbactam in combination with a fixed concentration of 4 µg/mL durlobactam ([35]).

[4] = tested on: A. baumannii wild-type PBP3; test: Acylation rate constant (kinact/Ki), fluorescence anisotropy competition with BOCILLIN; details: Wildtype PBP3; for k inact/K i: average ± SD
A. baumannii PBP3 S390T [5] = test: as above; details: variant data from McLeod et al. (2018)
A. baumannii PBP3 S395F [6] = test: as above; details: variant data from McLeod et al. (2018)
A. baumannii PBP3 N392T = test: as above; details: for k inact/K i: average ± SD
[7] = tested on: A. baumannii AB5075 and transposon mutants in efflux genes; test: Broth microdilution MIC, isogenic A. baumannii transposon mutants in efflux genes; assay type: cell-based; details: for In vitro activity (MIC): tested in duplicate; for MIC changes as compared to the parent strain: all tested efflux gene disruptions, AB5075
Protocol: To further assess the role of efflux in SUL-DUR activity against Acinetobacter spp., two panels of A. baumannii isogenic strains were tested. The first consisted of 7 members of an A. baumannii transposon library ([28]) with single gene disruptions in the adeABC, adeIJK, or adeT loci as compared to the parent strain, AB5075. […] This panel of strains consists of four different point mutants in AdeR and five different point mutants in AdeS, which result in the upregulation of AdeABC expression. In addition, this panel contains chromosomal deletions of adeL and adeN, which result in overexpression of AdeFGH and AdeIJK, respectively ([29]).
The parent and each isogenic mutant strain in both panels was measured for susceptibility to sulbactam, durlobactam, SUL-DUR, imipenem, and gentamicin. […].
The AB5075 parent strain as well as transposon interrupted AdeABC, AdeIJK, and AdeT were purchased from the Manoil laboratory at the University of Washington from their arrayed transposon mutant collection ([28]). The KAB1544 parent as well as efflux pump regulator mutants and deletions were constructed as previously described ([29]).
as §1

A. baumannii PBP3 N377Y = test: Acylation rate constant (kinact/Ki), fluorescence anisotropy competition with BOCILLIN; details: for k inact/K i: average ± SD
A. baumannii PBP3 Q488K = test: as above; details: for k inact/K i: average ± SD
[8] = Acinetobacter baylyi, A. baylyi, PBP3 H370Y, overexpressed ADC-30
[9] = Acinetobacter baylyi, A. baylyi, PBP3 H370Y, overexpressed OXA-23
[10] = Acinetobacter baylyi, A. baylyi, PBP3 H370Y, overexpressed OXA-24
[11] = Acinetobacter baylyi, A. baylyi, PBP3 H370Y, overexpressed OXA-66
[12] = Acinetobacter baylyi, A. baylyi, PBP3 H370Y, overexpressed TEM-1
[13] = Acinetobacter baylyi, A. baylyi, PBP3 H370Y, β-lactamase None (empty vector)
[14] = Acinetobacter baylyi, A. baylyi, PBP3 Wildtype, overexpressed ADC-30, read-out: MIC
[15] = Acinetobacter baylyi, A. baylyi, PBP3 Wildtype, overexpressed OXA-23, read-out: MIC
[16] = Acinetobacter baylyi, A. baylyi, PBP3 Wildtype, overexpressed OXA-24, read-out: MIC
[17] = Acinetobacter baylyi, A. baylyi, PBP3 Wildtype, overexpressed OXA-66, read-out: MIC
[18] = Acinetobacter baylyi, A. baylyi, PBP3 Wildtype, overexpressed TEM-1, read-out: MIC
[19] = Acinetobacter baylyi, A. baylyi, PBP3 Wildtype, β-lactamase None (empty vector), read-out: MIC

CC1(C)[C@H](C(=O)O)N2C(=O)C[C@H]2S1(=O)=O [sulbactam]
% WT (A. baumannii PBP3 H370Y): ~ 120% and 126%
k inact/K i (A. baumannii PBP3 H370Y): 19 ± 2 ([2]) M^-1s^-1
% WT (A. baumannii PBP3 H370Y; listed as Sulbactam): 126.7%
k inact/K i (A. baumannii PBP3 S390T [1]): 0.03 ± 0.02 ([3]) M^-1s^-1
k inact/K i (A. baumannii PBP3 S395F [2]): 0.63 ± 0.06 ([3]) M^-1s^-1
MIC [3, 8]: 2 µg/mL
MIC [3, 9]: > 64 µg/mL
MIC [3, 10]: > 64 µg/mL
MIC [3, 11]: 4 µg/mL
MIC [3, 12]: 4 µg/mL
MIC [3, 13]: 8 µg/mL
MIC [3, 14]: 2 µg/mL
MIC [3, 15]: > 64 µg/mL
MIC [3, 16]: 16 µg/mL
MIC [3, 17]: 8 µg/mL
MIC [3, 18]: 16 µg/mL
MIC [3, 19]: 4 µg/mL
increase in MIC values in the presence of β-lactamase ([3]; TEM-1, OXA-23 and OXA-24): ≥ 4 fold
MIC ([3]; {}): >64 µg/mL
% WT [4]: 100%
k inact/K i [4]: 15 ± 3 ([10]) M^-1s^-1
% WT (A. baumannii PBP3 S390T [5]): 0.2%
% WT (A. baumannii PBP3 S395F [6]): 4.2%
% WT (A. baumannii PBP3 N392T): ~ 120%
k inact/K i (A. baumannii PBP3 N392T): 18 ± 1 ([2]) M^-1s^-1
% WT (A. baumannii PBP3 N392T; listed as Sulbactam): 120%
In vitro activity (MIC) ([7]; Parent (AB5075)): 64 µg/mL
In vitro activity (MIC) ([7]; adeA::tn in AB5075): 32 µg/mL
In vitro activity (MIC) ([7]; adeB::tn in AB5075): 32 µg/mL
In vitro activity (MIC) ([7]; adeC::tn in AB5075): 64 µg/mL
In vitro activity (MIC) ([7]; adeI::tn in AB5075): 32 µg/mL
In vitro activity (MIC) ([7]; adeJ::tn in AB5075): 64 µg/mL
In vitro activity (MIC) ([7]; adeK::tn in AB5075): 32 µg/mL
In vitro activity (MIC) ([7]; adeT::tn in AB5075): 64 µg/mL
MIC changes as compared to the parent strain [7]: ≤ 2 fold
% WT (A. baumannii PBP3 N377Y): 60%–73%
k inact/K i (A. baumannii PBP3 N377Y): 11 ± 2 ([2]) M^-1s^-1
% WT (A. baumannii PBP3 N377Y; listed as Sulbactam): 73.3%
% WT (A. baumannii PBP3 Q488K): 60%–73%
k inact/K i (A. baumannii PBP3 Q488K): 9.9 ± 0.3 ([2]) M^-1s^-1
% WT (A. baumannii PBP3 Q488K; listed as Sulbactam): 66%

C[C@@H](O)[C@H]1C(=O)N2C(C(=O)O)=C(S[C@@H]3CN[C@H](C(=O)N(C)C)C3)[C@H](C)[C@H]12 [meropenem]
% WT (A. baumannii PBP3 H370Y): 120%
k inact/K i (A. baumannii PBP3 H370Y): 6,000 ± 10 ([2]) M^-1s^-1
k inact/K i (A. baumannii PBP3 S390T [1]): 16,000 ± 6,000 ([3]) M^-1s^-1
k inact/K i (A. baumannii PBP3 S395F [2]): 1,500 ± 200 ([3]) M^-1s^-1
MIC [3, 8]: 0.06 µg/mL
MIC [3, 9]: 8 µg/mL
MIC [3, 10]: > 8 µg/mL
MIC [3, 11]: 0.5 µg/mL
MIC [3, 12]: 0.06 µg/mL
MIC [3, 13]: 0.06 µg/mL
MIC [3, 14]: 0.13 µg/mL
MIC [3, 15]: 8 µg/mL
MIC [3, 16]: > 8 µg/mL
MIC [3, 17]: 1 µg/mL
MIC [3, 18]: 0.13 µg/mL
MIC [3, 19]: 0.06 µg/mL
increase in MIC values in the presence of β-lactamase ([3]; OXA-23, OXA-24 and OXA-66): ≥ 4 fold
% WT [4]: 100%
k inact/K i [4]: 5,000 ± 1,000 ([10]) M^-1s^-1
% WT (A. baumannii PBP3 S395F [6]): 30%
% WT (A. baumannii PBP3 N392T): 164%
k inact/K i (A. baumannii PBP3 N392T): 8,200 ± 200 ([2]) M^-1s^-1
% WT (A. baumannii PBP3 N377Y): 74%
k inact/K i (A. baumannii PBP3 N377Y): 3,700 ± 300 ([2]) M^-1s^-1
% WT (A. baumannii PBP3 Q488K): 78%
k inact/K i (A. baumannii PBP3 Q488K): 3,900 ± 200 ([2]) M^-1s^-1

C[C@@H](O)[C@H]1C(=O)N2C(C(=O)O)=C(SCCN=CN)C[C@H]12 [imipenem]
% WT (A. baumannii PBP3 H370Y): 106.7%
k inact/K i (A. baumannii PBP3 H370Y): 480 ± 40 ([2]) M^-1s^-1
k inact/K i (A. baumannii PBP3 S390T [1]): 540 ± 40 ([3]) M^-1s^-1
k inact/K i (A. baumannii PBP3 S395F [2]): 8.8 ± 0.7 ([3]) M^-1s^-1
MIC [3, 8]: 0.03 µg/mL
MIC [3, 9]: 4 µg/mL
MIC [3, 10]: > 8 µg/mL
MIC [3, 11]: 0.06 µg/mL
MIC [3, 12]: 0.03 µg/mL
MIC [3, 13]: 0.03 µg/mL
MIC [3, 14]: 0.13 µg/mL
MIC [3, 15]: 8 µg/mL
MIC [3, 16]: 8 µg/mL
MIC [3, 17]: 0.13 µg/mL
MIC [3, 18]: 0.03 µg/mL
MIC [3, 19]: 0.03 µg/mL
increase in MIC values in the presence of β-lactamase ([3]; ADC-30, OXA-23, OXA-24 and OXA-66): ≥ 4 fold
% WT [4]: 100%
k inact/K i [4]: 450 ± 60 ([10]) M^-1s^-1
% WT (A. baumannii PBP3 S390T [5]): 120%
% WT (A. baumannii PBP3 S395F [6]): 2.0%
% WT (A. baumannii PBP3 N392T): 175.6%
k inact/K i (A. baumannii PBP3 N392T): 790 ± 50 ([2]) M^-1s^-1
In vitro activity (MIC) ([7]; Parent (AB5075)): 16 µg/mL
In vitro activity (MIC) ([7]; adeA::tn in AB5075): 8 µg/mL
In vitro activity (MIC) ([7]; adeB::tn in AB5075): 8 µg/mL
In vitro activity (MIC) ([7]; adeC::tn in AB5075): 16 µg/mL
In vitro activity (MIC) ([7]; adeI::tn in AB5075): 16 µg/mL
In vitro activity (MIC) ([7]; adeJ::tn in AB5075): 16 µg/mL
In vitro activity (MIC) ([7]; adeK::tn in AB5075): 16 µg/mL
In vitro activity (MIC) ([7]; adeT::tn in AB5075): 8 µg/mL
MIC changes as compared to the parent strain [7]: ≤ 2 fold
% WT (A. baumannii PBP3 N377Y): 62.2%
k inact/K i (A. baumannii PBP3 N377Y): 280 ± 10 ([2]) M^-1s^-1
% WT (A. baumannii PBP3 Q488K): 82.2%
k inact/K i (A. baumannii PBP3 Q488K): 370 ± 20 ([2]) M^-1s^-1
